Experimental data reported in patent US20060293360A1, “4-(2-Phenyloxyphenyl)-piperidine or-1,2,3,6-tetrahydropyridine derivatives as serotonin reuptake inhibitors” (H. Lundbeck A/S, priority 2003, published 2006).

Tests used:
[1] = biological target: T1, serotonin reuptake ([3H]-5-HT uptake into rat cortical synaptosomes) (Rattus norvegicus, UniProt P31652); test: [3H]-5-HT uptake into rat cortical synaptosomes; assay type: biochemical; conditions: result in words
T1 construct: Whole brains from male Wistar rats (125-225 g), excluding cerebellum, are homogenized; from tissue; host or cells: synaptosomal fraction of whole brain (excluding cerebellum) from male Wistar rats
Method: Measurements of [^3H]-5-HT Uptake into Rat Cortical Synaptosomes.
Whole brains from male Wistar rats (125-225 g), excluding cerebellum, are homogenized in 0.32 M sucrose supplemented with 1 mM nialamid with a glass/teflon homogenizer. The homogenate is centrifuged at 600×g for 10 min at 4° C. The pellet is discarded and the supernatant is centrifuged at 20.000×g for 55 min. The final pellet is homogenized (20 sec) in this assay buffer (0.5 mg original tissue/well). Test compounds (or buffer) and 10 nM [^3H]-5-HT are added to 96 well plates and shaken briefly. 10 Composition of assay buffer: 123 mM NaCl, 4.82 mM KCl, 0.973 mM CaCl2, 1.12 mM MgSO4, 12.66 mM Na2HPO4, 2.97 mM NaH2PO4, 0.162 mM EDTA, 10 mM glucose and 1 mM ascorbic acid. Buffer is oxygenated with 95% 02/5% C02 for 10 min at 37° C. and pH is adjusted 7.4. The incubation is started by adding tissue to a final assay volume of 0.2 mL. After 15 min incubation with radioligand at 37° C., samples are filtered 15 directly on Unifilter GF/C glass fiber filters (soaked for 1 hour in 0.1% polyethylenimine) under vacuum and immediately washed with 3×0.2 ml assay buffer. Non-specific uptake is determined using citalopram (10 μM final concentration). Citalopram is included as reference in all experiments as dose-response curve.

[2] = biological target: T2, norepinephrine uptake ([3H]-noradrenaline uptake into rat cortical synaptosomes) (Rattus norvegicus, UniProt Q9WTR4); test: [3H]Noradrenaline uptake into rat cortical synaptosomes; assay type: biochemical; conditions: result in words
T2 construct: Fresh cortex from male Wistar rats (125-225 g) are homogenized in 0.4M sucrose; from tissue; host or cells: synaptosomal fraction of fresh cortex from male Wistar rats
Method: Measurements of [^3 H]Noradrenaline Uptake into Rat Cortical Synaptosomes.
Fresh cortex from male Wistar rats (125-225 g) are homogenized in 0.4M sucrose with a glass/teflon homogenizer. The homogenate is centrifuged at 600×g for 10 min at 4° C. The pellet is discarded and the supernatant is centrifuged at 20.000×g for 55 min. The final pellet is homogenized (20 sec) in this assay buffer (6 mg original tissue/mL=[…]). Test compounds (or buffer) and 10 nM [^3H]-noradrenaline are added to deep 96 well plates and shaken briefly. Composition of assay buffer: 123 mM NaCl, 4.82 mM 1Cl, 0.973 mM CaCl2, 1.12 mM MgSO4, 12.66 MM Na2HPO4, 2.97 MM NaH2PO4, 0.162 mM EDTA, 10 mM glucose and 1 mM ascorbic acid. Buffer is oxygenated with 95% 02/5% C02 for 10 min at 37° C. and pH is adjusted 7.4. The incubation is started by adding tissue to a final assay volume of 1 ml. After 15 min incubation with radioligand at 37° C., samples are filtered directly on Unifilter GF/C glass fiber filters (soaked for 1 hour in 0.1% polyethylenimie) under vacuum and immediately washed with 3×1 mL assay buffer. Non-specific uptake is determined using talsupram ([…] final concentration). Duloxetine is included as reference in all experiments as dose-response curve.

T1 sequence (P31652 whole entry): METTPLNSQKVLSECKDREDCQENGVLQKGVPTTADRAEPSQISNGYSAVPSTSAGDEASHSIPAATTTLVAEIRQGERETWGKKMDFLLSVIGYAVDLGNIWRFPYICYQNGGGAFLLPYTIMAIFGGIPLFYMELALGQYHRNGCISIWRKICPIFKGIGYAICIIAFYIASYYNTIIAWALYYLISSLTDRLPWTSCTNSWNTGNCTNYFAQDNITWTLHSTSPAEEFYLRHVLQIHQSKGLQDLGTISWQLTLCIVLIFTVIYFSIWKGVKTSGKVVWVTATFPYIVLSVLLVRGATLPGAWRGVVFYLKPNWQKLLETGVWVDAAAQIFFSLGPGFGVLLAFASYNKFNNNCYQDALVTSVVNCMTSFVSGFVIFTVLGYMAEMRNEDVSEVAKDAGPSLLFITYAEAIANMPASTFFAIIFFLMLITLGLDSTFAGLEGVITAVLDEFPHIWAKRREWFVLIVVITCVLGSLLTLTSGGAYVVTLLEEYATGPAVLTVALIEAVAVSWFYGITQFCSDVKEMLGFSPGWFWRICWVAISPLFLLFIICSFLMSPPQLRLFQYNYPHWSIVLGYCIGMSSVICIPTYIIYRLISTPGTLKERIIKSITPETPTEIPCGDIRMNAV
T2 sequence (Q9WTR4 1-597): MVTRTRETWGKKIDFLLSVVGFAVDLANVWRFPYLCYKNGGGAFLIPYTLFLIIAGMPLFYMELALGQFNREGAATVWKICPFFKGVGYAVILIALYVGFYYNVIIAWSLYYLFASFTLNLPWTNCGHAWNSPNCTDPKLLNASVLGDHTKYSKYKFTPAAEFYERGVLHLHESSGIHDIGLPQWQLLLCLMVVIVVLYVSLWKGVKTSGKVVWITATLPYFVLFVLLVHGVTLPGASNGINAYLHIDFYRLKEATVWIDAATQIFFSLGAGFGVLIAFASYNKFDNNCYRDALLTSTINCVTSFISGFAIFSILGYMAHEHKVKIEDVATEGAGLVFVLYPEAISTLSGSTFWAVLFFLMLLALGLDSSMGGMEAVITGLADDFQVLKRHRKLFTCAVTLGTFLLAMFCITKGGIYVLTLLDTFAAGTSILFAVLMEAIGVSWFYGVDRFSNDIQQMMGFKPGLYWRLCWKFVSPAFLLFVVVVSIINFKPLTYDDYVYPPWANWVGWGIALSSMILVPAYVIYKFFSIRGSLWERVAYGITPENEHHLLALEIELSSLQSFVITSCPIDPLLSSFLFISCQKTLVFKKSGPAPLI

Row | SMILES | serotonin reuptake inhibition [1] | norepinephrine uptake inhibition [2]
1 | Cc1ccc(Oc2ccccc2C2=CCNCC2)c(C)c1 [1a, 4-[2-(2,4-Dimethylphenoxy)phenyl]-1,2,3,6-tetrahydropyridine] | did show serotonin reuptake inhibition | did not show norepinephrine uptake inhibition
2 | Clc1ccc(Oc2ccccc2C2=CCNCC2)cc1 [1b, 4-[2-(4-Chlorophenoxy)phenyl]-1,2,3,6-tetrahydropyridine] | did show serotonin reuptake inhibition | did not show norepinephrine uptake inhibition
3 | Cc1cc(F)ccc1Oc1ccccc1C1=CCNCC1 [1c, 4-[2-(4-Fluoro-2-methylphenoxy)phenyl]-1,2,3,6-tetrahydropyridine] | did show serotonin reuptake inhibition | did not show norepinephrine uptake inhibition
4 | Fc1ccc(Oc2ccccc2C2=CCNCC2)cc1 [1d, 4-[2-(4-Fluorophenoxy)phenyl]-1,2,3,6-tetrahydropyridine] | did show serotonin reuptake inhibition | did not show norepinephrine uptake inhibition
5 | Cc1ccc(Oc2ccccc2C2=CCNCC2)cc1 [1e, 4-[2-(4-Methylphenoxy)phenyl]-1,2,3,6-tetrahydropyridine] | did show serotonin reuptake inhibition | did not show norepinephrine uptake inhibition
6 | COc1ccc(Oc2ccccc2C2=CCNCC2)cc1 [1f, 4-[2-(4-Methoxyphenoxy)phenyl]-1,2,3,6-tetrahydropyridine] | did show serotonin reuptake inhibition | did not show norepinephrine uptake inhibition
7 | Cc1ccc(Oc2ccccc2C2CCNCC2)cc1C [3h, 4-[2-(3,4-Dimethyl-phenoxy)-phenyl]-piperidine] | did show serotonin reuptake inhibition | did not show norepinephrine uptake inhibition
8 | Cc1cc(Oc2ccccc2C2CCNCC2)c(C)c(C)c1C [3i, 4-[2-(2,3,4,5-Tetramethyl-phenoxy)-phenyl]-piperidine] | did show serotonin reuptake inhibition | did not show norepinephrine uptake inhibition
9 | COc1ccc(Oc2ccccc2C2CCNCC2)cc1OC [3m, 4-[2-(3,4-Dimethoxy-phenoxy)-phenyl]-piperidine] | did show serotonin reuptake inhibition | did not show norepinephrine uptake inhibition
